Laboratory results as given in US12679878B2, “CRF2 receptor agonists and their use in therapy” (SANOFI, priority 2020, dated 2026).
Starred links: 1 amine or outer side, 2 acyl side, 3 side chain; linkers in the order of their positions; H or OH if unused. Non-standard residues stand in square brackets, D forms with d. Residues, ends and D or L forms follow the SMILES beside them. Groups on a side chain read outwards from the residue. *: point of attachment. C18 diacid = O=C(O)CCCCCCCCCCCCCCCCC(=O)*; γGlu = O=C(O)[C@H](CCC(=O)[*:2])N[*:1]; AEEA = NCCOCCOCC(=O)O; Aib = CC(C)(N)C(=O)O

Assay: Effect on blood pressure, telemetry (Example 17)
Type: in vivo
Details: Sprague Dawley rats, 0.1 mg/kg SC
Experimental: The effect of the compounds on blood pressure was determined in telemetry studies in Sprague Dawley rats at a dosage of 0.1 mg/kg SC.
The rats were previously implanted with a telemetry device (DSI, Saint-Paul, USA, HD-S10, HD-S11 or HD S21) and allowed to recover for a minimum period of 2 weeks before treatment with vehicle or the different peptides. Blood pressure (BP) was recorded through a catheter inserted into the abdominal aorta. The device body was placed in the abdomen. At the end of surgery, animals were placed in individual cages until the end of the study.
Pressure signals were recorded for one hour before the treatment (basal period). Thereafter, the subcutaneous administration of the test compound or its vehicle was performed, under continuous recording of the signal over a 48-hour period. Data acquisition was performed using Hem 4.3 acquisition software (Notocord®, Le Pecq, France) connected to the telemetry device. Hemodynamic parameters were recorded during a […] before treatment and every 4-hour period following subcutaneous administration over 48 hours.
Investigated parameters (calculated from BP signal) were Heart Rate (HR) in beats per minute (bpm), Diastolic and Systolic Blood Pressure (DBP) in mmHg, and Mean Blood Pressure (MBP) in mmHg.
Data from Hem were manipulated using Microsoft Excel®. For each parameter, a basal value was determined as the average calculated over a 1-hour period during the pre-treatment sequence, and the values post treatment were calculated over 4-hour periods ([0-4], [4-8], [8-12], [12-16], [16-20], [20-24], [24-28], [32-36], [36-40], [40-44] and [44-48] hours) covering the 48-hour period following administration.
Representative data are presented in Table 15 below, in which “n” represents the number of animals for which individual values were obtained and “Duration” indicates the last time point for which a significant effect on BP was still seen: Table 15

SMILES | Duration (h): last time point for which a significant effect on BP was still seen [h] | Effect on Systolic Pressure % change from baseline 8 h [%] | Effect on Systolic Pressure % change from baseline 24 h [%]
CC[C@H](C)[C@H](N)C(=O)N[C@H](C(=O)N[C@@H](CC(C)C)C(=O)N[C@@H](CO)C(=O)N[C@@H](CC(C)C)C(=O)N[C@@H](CC(=O)O)C(=O)N[C@@H](C(=O)N1CCC[C@H]1C(=O)N[C@H](C(=O)N[C@@H](CCCCN)C(=O)N[C@@H](CC(C)C)C(=O)N[C@@H](CCCCNC(=O)COCCOCCNC(=O)COCCOCCNC(=O)CC[C@H](NC(=O)CCCCCCCCCCCCCCCCC(=O)O)C(=O)O)C(=O)N[C@@H](CCC(N)=O)C(=O)N[C@H](C(=O)N[C@@H](CC(C)C)C(=O)N[C@@H](CC(C)C)C(=O)N[C@@H](CCCCN)C(=O)N[C@@H](CCC(N)=O)C(=O)N[C@@H](CCC(=O)O)C(=O)N[C@@H](CCCNC(=N)N)C(=O)N[C@@H](CCC(N)=O)C(=O)N[C@@H](CCCCN)C(=O)NC(C)(C)C(=O)N[C@@H](CCC(N)=O)C(=O)N[C@@H](CCCNC(=N)N)C(=O)N[C@@H](CCC(=O)O)C(=O)N[C@@H](CCC(N)=O)C(=O)N[C@@H](C)C(=O)N[C@@H](CCC(=O)O)C(=O)N[C@@H](CCCCN)C(=O)N[C@@H](CC(N)=O)C(=O)N[C@@H](CCCCN)C(=O)N[C@@H](CCC(N)=O)C(=O)N[C@H](C(=O)N[C@@H](CC(C)C)C(=O)N[C@@H](C)C(=O)N[C@@H](CCC(N)=O)C(=O)N[C@H](C(N)=O)C(C)C)[C@@H](C)CC)[C@@H](C)CC)[C@@H](C)CC)C(C)C)C(C)C [SEQ ID NO: 130, IVLSLDvPIKLK*QILLKQERQKAibQREQAEKNKQILAQV-NH2] (H-IVLSLD[dV]PIKLK([AEEA-AEEA-γGlu-C18 diacid])QILLKQERQK[Aib]QREQAEKNKQILAQV-NH2) | 30 | −15.2 | −9.9
CC[C@H](C)[C@H](N)C(=O)N[C@H](C(=O)N[C@@H](CC(C)C)C(=O)N[C@@H](CO)C(=O)N[C@@H](CC(C)C)C(=O)N[C@@H](CC(=O)O)C(=O)N[C@@H](C(=O)N1CCC[C@H]1C(=O)N[C@H](C(=O)N[C@@H](CCCCN)C(=O)N[C@@H](CC(C)C)C(=O)N[C@@H](CCCCNC(=O)COCCOCCNC(=O)COCCOCCNC(=O)CC[C@H](NC(=O)CCCCCCCCCCCCCCCCC(=O)O)C(=O)O)C(=O)N[C@@H](CCC(N)=O)C(=O)N[C@H](C(=O)N[C@@H](CC(C)C)C(=O)N[C@@H](CC(C)C)C(=O)N[C@@H](CCCCN)C(=O)N[C@@H](CCC(N)=O)C(=O)N[C@@H](CCC(=O)O)C(=O)N[C@@H](CCCNC(=N)N)C(=O)N[C@@H](CCC(N)=O)C(=O)N[C@@H](CCCCN)C(=O)NC(C)(C)C(=O)N[C@@H](CCC(N)=O)C(=O)N[C@@H](CCCNC(=N)N)C(=O)N[C@@H](CCC(N)=O)C(=O)N[C@@H](CCC(N)=O)C(=O)N[C@@H](C)C(=O)N[C@@H](CCC(=O)O)C(=O)N[C@@H](CCCCN)C(=O)N[C@@H](CC(N)=O)C(=O)N[C@@H](CCCCN)C(=O)N[C@@H](CCC(N)=O)C(=O)N[C@H](C(=O)N[C@@H](CC(C)C)C(=O)N[C@@H](C)C(=O)N[C@@H](CCC(N)=O)C(=O)N[C@H](C(N)=O)C(C)C)[C@@H](C)CC)[C@@H](C)CC)[C@@H](C)CC)C(C)C)C(C)C [SEQ ID NO: 135, IVLSLDvPIKLK*QILLKQERQKAibQRQQAEKNKQILAQV-NH2] (H-IVLSLD[dV]PIKLK([AEEA-AEEA-γGlu-C18 diacid])QILLKQERQK[Aib]QRQQAEKNKQILAQV-NH2) | 30 | −8.8 | −4.8
CC[C@H](C)[C@H](N)C(=O)N[C@H](C(=O)N[C@@H](CC(C)C)C(=O)N[C@@H](CO)C(=O)N[C@@H](CC(C)C)C(=O)N[C@@H](CC(=O)O)C(=O)N[C@@H](C(=O)N1CCC[C@H]1C(=O)N[C@H](C(=O)N[C@@H](CCCCN)C(=O)N[C@@H](CC(C)C)C(=O)N[C@@H](CCCCNC(=O)COCCOCCNC(=O)COCCOCCNC(=O)CC[C@H](NC(=O)CCCCCCCCCCCCCCCCC(=O)O)C(=O)O)C(=O)N[C@@H](CCC(N)=O)C(=O)N[C@H](C(=O)N[C@@H](CC(C)C)C(=O)N[C@@H](CC(C)C)C(=O)N[C@@H](CCCCN)C(=O)N[C@@H](CCC(N)=O)C(=O)N[C@@H](CCC(=O)O)C(=O)N[C@@H](CCCNC(=N)N)C(=O)N[C@@H](CCC(N)=O)C(=O)N[C@@H](CCCCN)C(=O)N[C@@H](CCCCN)C(=O)N[C@@H](CCC(N)=O)C(=O)N[C@@H](CCCNC(=N)N)C(=O)N[C@@H](CCC(=O)O)C(=O)N[C@@H](CCC(N)=O)C(=O)N[C@@H](C)C(=O)N[C@@H](CCC(=O)O)C(=O)N[C@@H](CCCCN)C(=O)N[C@@H](CC(N)=O)C(=O)N[C@@H](CCCCN)C(=O)N[C@@H](CCC(N)=O)C(=O)N[C@H](C(=O)N[C@@H](CC(C)C)C(=O)N[C@@H](CCC(=O)O)C(=O)N[C@@H](CCC(N)=O)C(=O)N[C@H](C(N)=O)C(C)C)[C@@H](C)CC)[C@@H](C)CC)[C@@H](C)CC)C(C)C)C(C)C [SEQ ID NO: 137] (H-IVLSLD[dV]PIKLK([AEEA-AEEA-γGlu-C18 diacid])QILLKQERQKKQREQAEKNKQILEQV-NH2) | 28 | −15.9 | −6.5
CC[C@H](C)[C@H](N)C(=O)N[C@H](C(=O)N[C@@H](CC(C)C)C(=O)N[C@@H](CO)C(=O)N[C@@H](CC(C)C)C(=O)N[C@@H](CC(=O)O)C(=O)N[C@@H](C(=O)N1CCC[C@H]1C(=O)N[C@H](C(=O)N[C@@H](CCCCN)C(=O)N[C@@H](CC(C)C)C(=O)N[C@@H](CCCCNC(=O)COCCOCCNC(=O)COCCOCCNC(=O)CC[C@H](NC(=O)CCCCCCCCCCCCCCCCC(=O)O)C(=O)O)C(=O)N[C@@H](CCC(N)=O)C(=O)N[C@H](C(=O)N[C@@H](CC(C)C)C(=O)N[C@@H](CC(C)C)C(=O)N[C@@H](CCCCN)C(=O)N[C@@H](CCC(N)=O)C(=O)N[C@@H](CCC(=O)O)C(=O)N[C@@H](CCCNC(=N)N)C(=O)N[C@@H](CCC(N)=O)C(=O)N[C@@H](CCCCN)C(=O)N[C@@H](CCCCN)C(=O)N[C@@H](CCC(N)=O)C(=O)N[C@@H](CCCNC(=N)N)C(=O)N[C@@H](CCC(=O)O)C(=O)N[C@@H](CCCCN)C(=O)N[C@@H](C)C(=O)N[C@@H](CCC(=O)O)C(=O)N[C@@H](CCCCN)C(=O)N[C@@H](CC(N)=O)C(=O)N[C@@H](CCCCN)C(=O)N[C@@H](CCC(N)=O)C(=O)N[C@H](C(=O)N[C@@H](CC(C)C)C(=O)N[C@@H](C)C(=O)N[C@@H](CCC(N)=O)C(=O)N[C@H](C(N)=O)C(C)C)[C@@H](C)CC)[C@@H](C)CC)[C@@H](C)CC)C(C)C)C(C)C [SEQ ID NO: 138] (H-IVLSLD[dV]PIKLK([AEEA-AEEA-γGlu-C18 diacid])QILLKQERQKKQREKAEKNKQILAQV-NH2) | 30 | −6.1 | −3.6
CC[C@H](C)[C@H](N)C(=O)N[C@H](C(=O)N[C@@H](CC(C)C)C(=O)N[C@@H](CO)C(=O)N[C@@H](CC(C)C)C(=O)N[C@@H](CC(=O)O)C(=O)N[C@@H](C(=O)N1CCC[C@H]1C(=O)N[C@H](C(=O)N[C@@H](CCCCN)C(=O)N[C@@H](CC(C)C)C(=O)N[C@@H](CCCCNC(=O)COCCOCCNC(=O)COCCOCCNC(=O)CC[C@H](NC(=O)CCCCCCCCCCCCCCCCC(=O)O)C(=O)O)C(=O)N[C@@H](CCC(N)=O)C(=O)N[C@H](C(=O)N[C@@H](CC(C)C)C(=O)N[C@@H](CC(C)C)C(=O)N[C@@H](CCC(=O)O)C(=O)N[C@@H](CCC(N)=O)C(=O)N[C@@H](C)C(=O)N[C@@H](CCCNC(=N)N)C(=O)N[C@@H](CCC(N)=O)C(=O)N[C@@H](CCCCN)C(=O)NC(C)(C)C(=O)N[C@@H](CCC(N)=O)C(=O)N[C@@H](CCCNC(=N)N)C(=O)N[C@@H](C)C(=O)N[C@@H](CCC(N)=O)C(=O)N[C@@H](C)C(=O)N[C@@H](CCC(=O)O)C(=O)N[C@@H](CCCCN)C(=O)N[C@@H](CC(N)=O)C(=O)N[C@@H](CCCCN)C(=O)N[C@@H](CCCNC(=N)N)C(=O)N[C@H](C(=O)N[C@@H](CC(C)C)C(=O)N[C@@H](CCC(=O)O)C(=O)N[C@@H](CCCNC(=N)N)C(=O)N[C@H](C(N)=O)C(C)C)[C@@H](C)CC)[C@@H](C)CC)[C@@H](C)CC)C(C)C)C(C)C [SEQ ID NO: 140, IVLSLDvPIKLK*QILLEQARQKAibQRAQAEKNKRILERV-NH2] (H-IVLSLD[dV]PIKLK([AEEA-AEEA-γGlu-C18 diacid])QILLEQARQK[Aib]QRAQAEKNKRILERV-NH2) | 32 | −19.9 | −3.0
